Measured values published in patent publication US4362870A, “Selective opioid receptor alkylating agents” (priority 1981, dated 1982).
Like-named read-outs stand apart in the source and are kept apart here.

Tests used:
[1] = test system: electrically stimulated guinea pig ileal longitudinal muscle strip; assay: Guinea pig ileum: morphine IC50 ratio before and after exposure to the test compound (Examples V-XIV); assay type: cell-based; details: 30 min exposure, 20 washes
Description: Details of the assay are found in Rang, Br. J. PHarmacol., 22, 356 (1964).
of the electrically stimulated guinea pig ileal longitudinal muscle strip
(treated) exposure (30 min) of the ileal preparation to the test compound
(2 × 10^-8 M) followed by 20 washes are expressed as a ratio, […]

effects of morphine [2] = assay: Duration of inhibitory effect on morphine (species not given); assay type: in vivo
From the text: (§1) The vertical bars represent 95% confidence intervals of the ED50 values.

[3] = test system: β-endorphin-induced stimulation of food intake; details: prior report; cited from earlier work
[4] = test system: electrically stimulated guinea pig ileal longitudinal muscle; assay: cells; assay type: cell-based; details: for IC50 Ratio FNA/Control: agonist IC50 after FNA (2 × 10^-8, 30 min, 20 washes) / control
morphine analgesia = assay: Duration of inhibitory effect on morphine analgesia, mouse; assay type: in vivo; details: HCl salt; 4.8 nmol/mouse intracebroventricular
Description: At 4.8 nmol/mouse (intracebroventricular) or at 5 mg/kg i.p. in the rat, the antagonist effects of FNA (as its HCl salt) lasted at least three days (FIG. 1). The vertical bars represent 95% confidence intervals of the ED50 values.

effects of morphine [5] = assay: Duration of inhibitory effect on morphine, rat; assay type: in vivo; details: HCl salt; 5 mg/kg i.p. in the rat
From the text: as §1

[6] = test system: analgesic response of mice; assay: Analgesic response of mice to FNA; assay type: in vivo, mouse
Description: FIG. 2 is a graphic representation of the analgesic response of mice to FNA.
The analgesic response of mice to FNA was tested.

[7] = Toxic effects at a single dose; assay type: in vivo; details: single dose which completely blocks morphine for at least three days
[8] = background statement; cited from earlier work

Structure (SMILES): CCCOC(=O)/C=C/C(=O)N[C@@H]1CC[C@@]2(O)[C@H]3Cc4ccc(O)c5c4[C@@]2(CCN3CC2CC2)[C@H]1O5 [VI]
- IC50 Ratio, morphine IC50 (treated)/morphine IC50 (control) ([1]; test compound 2 × 10^-8 M): 4.4

Structure (SMILES): CCOC(=O)/C=C/C(=O)N[C@@H]1CC[C@@]2(O)[C@H]3Cc4ccc(O)c5c4[C@@]2(CCN3CC2CC2)[C@H]1O5 [V]
- IC50 Ratio, morphine IC50 (treated)/morphine IC50 (control) ([1]; test compound 2 × 10^-8 M): 2.8

Structure (SMILES): C=CCN1CC[C@]23c4c5ccc(O)c4O[C@H]2C(=O)CC[C@@]3(O)[C@H]1C5 [naloxone, reference compound]
- antagonistic effect (effects of morphine [2]; tested 2 hours after administration): its effect had already dissipated
- block of β-endorphin-induced stimulation of food intake [3]: blocked

Structure (SMILES): CC(=O)/C=C/C(=O)N[C@@H]1CC[C@@]2(O)[C@H]3Cc4ccc(O)c5c4[C@@]2(CCN3CC2CC2)[C@H]1O5 [IX]
- IC50 Ratio, morphine IC50 (treated)/morphine IC50 (control) ([1]; test compound 2 × 10^-8 M): 6.4

Structure (SMILES): O=C(/C=C/C(=O)OCCc1ccccc1)N[C@@H]1CC[C@@]2(O)[C@H]3Cc4ccc(O)c5c4[C@@]2(CCN3CC2CC2)[C@H]1O5 [VIII]
- IC50 Ratio, morphine IC50 (treated)/morphine IC50 (control) ([1]; test compound 2 × 10^-8 M): 12.8

Structure (SMILES): O=C(/C=C/C(=O)OCc1ccccc1)N[C@@H]1CC[C@@]2(O)[C@H]3Cc4ccc(O)c5c4[C@@]2(CCN3CC2CC2)[C@H]1O5 [VII]
- IC50 Ratio, morphine IC50 (treated)/morphine IC50 (control) ([1]; test compound 2 × 10^-8 M): 3.4

Structure (SMILES): C=C(Cl)C(=O)N[C@@H]1CC[C@@]2(O)[C@H]3Cc4ccc(O)c5c4[C@@]2(CCN3CC2CC2)[C@H]1O5 [XI]
- IC50 Ratio, morphine IC50 (treated)/morphine IC50 (control) ([1]; test compound 2 × 10^-8 M): 8.2

Structure (SMILES): CSCC[C@H](NC(=O)[C@H](Cc1ccccc1)NC(=O)CNC(=O)[C@@H](C)NC(=O)[C@@H](N)Cc1ccc(O)cc1)C(N)=O [D-Ala^2 -- Met-- enkephlin- Amide]
- IC50 ([4]; after FNA (2 × 10^-8) incubated 30 minutes, washed 20 times, read-out: IC50 After FNA): 29.1 nM
- IC50 Ratio FNA/Control [4]: 6.9
- IC50 ([4]; control, before FNA, guinea pig ileum, read-out: IC50 Control): 4.2 nM

Structure (SMILES): COC(=O)/C=C/C(=O)N[C@@H]1CC[C@@]2(O)[C@H]3Cc4ccc(O)c5c4[C@@]2(CCN3CC2CC2)[C@H]1O5 [FNA, fumarnaltrexamine]
- inhibition of agonist effects of nalorphine or pentazocine ([4]; FNA 2×10^-8 M, 30 minutes): did not inhibit the agonist effects of nalorphine or pentazocine
- inhibition of response to morphine and enkephalin ([4]; FNA 2×10^-8 M, 30 minutes): inhibited irreversibly
- block of agonist effects of morphine, enkephalin, pentazocine and nalorphine (selectivity) ([4]; electrically stimulated guinea pig ileum, summary statement in description): irreversibly block the agonist effects of morphine or enkephalin but not the agonist effects of pentazocine or nalorphine
- duration of antagonist effects (morphine analgesia): at least three
- duration of antagonist effects (effects of morphine [5]): at least three
- duration of complete block of the effects of morphine (effects of morphine [2]; single dose): at least three
- analgesia [6]: reversible analgesia
- reversal of analgesia by its own antagonistic properties [6]: not reversed by its own antagonistic properties
- toxic effects [7]: no toxic effects

Structure (SMILES): Oc1ccc2c3c1O[C@H]1[C@H](N=C=S)CC[C@@]4(O)[C@@H](C2)N(CC2CC2)CC[C@]314 [XIII]
- IC50 Ratio, morphine IC50 (treated)/morphine IC50 (control) ([1]; test compound 2 × 10^-8 M): 2.3

Structure (SMILES): C=CCN1CC[C@]23c4c5ccc(O)c4O[C@H]2[C@@H](O)C=C[C@H]3[C@H]1C5 [Nalorphine]
- IC50 ([4]; Cavia porcellus, 0.5 h, after FNA (2 × 10^-8) incubated 30 minutes, washed 20 times, read-out: IC50 After FNA): 25.2 nM
- IC50 ([4]; Cavia porcellus, control, before FNA, guinea pig ileum, read-out: IC50 Control): 28.1 nM
- IC50 Ratio FNA/Control [4]: 0.9

Structure (SMILES): C=CCN1CC[C@]23c4c5ccc(O)c4O[C@H]2[C@H](NC(=O)/C=C/C(=O)OC)CC[C@@]3(O)[C@H]1C5 [XIV]
- IC50 Ratio, morphine IC50 (treated)/morphine IC50 (control) ([1]; test compound 10^-7 M): 6.4

Structure (SMILES): C=CC(=O)N[C@@H]1CC[C@@]2(O)[C@H]3Cc4ccc(O)c5c4[C@@]2(CCN3CC2CC2)[C@H]1O5 [X]
- IC50 Ratio, morphine IC50 (treated)/morphine IC50 (control) ([1]; test compound 2 × 10^-8 M): 1.9

Structure (SMILES): O=C(CI)N[C@@H]1CC[C@@]2(O)[C@H]3Cc4ccc(O)c5c4[C@@]2(CCN3CC2CC2)[C@H]1O5 [XII]
- IC50 Ratio, morphine IC50 (treated)/morphine IC50 (control) ([1]; test compound 10^-6 M): 25.6

Structure (SMILES): CC(C)C[C@H](NC(=O)[C@H](Cc1ccccc1)NC(=O)CNC(=O)CNC(=O)[C@@H](N)Cc1ccc(O)cc1)C(=O)O [enkephalin]
- hypotensive action [8]: potent hypotensive agents
